The text below walks through data of patent EP2416773B1, “CHECKPOINT KINASE 1 INHIBITORS FOR POTENTIATING DNA DAMAGING AGENTS” (Array Biopharma, Inc., priority 2009, dated 2010).

For data set [1], the system named is subcutaneous HT-29 xenografts. The data set can be described thus: Tumor growth inhibition experiment, CPT11 and Compound 5 (Example 12). It is filed as in vivo. Conditions: for Growth Delay / Maximum % Body Weight Loss: single agent, CPT11 100 mg/kg IP Q10Dx2, Compound 5 PO BID 3 days, dose not given. Here is the method:
Female nude mice were inoculated subcutaneously with 4 X 10^6 HT-29 tumor cells in 1X PBS (100 µL). Twelve days later, mice were randomized into groups of 7 with an average tumor volume in each group of approximately 200 mm^3. […] Tumor size and animal body weight were measured over the course of the study on the days indicated with data points in Figure 13. Tumor volume was calculated using the formula: volume = (width^2 x length)/2. No mortalities occurred over the course of this study.

Data set [2] is described as follows: Tolerability of CPT11 and Compound 2 with 12, 24 or 48 hour delay in naive mice (Example 4). It is filed as in vivo. To be noted: single agent; CPT11 100 mg/kg IP Q10Dx2; Compound 2 25 mg/kg PO BID 3 days per cycle.
The subject of data set [3] is subcutaneous HT-29 xenografts. The format is in vivo. To be noted: single agent; CPT11 100 mg/kg IP Q10Dx2; Compound 2 25 mg/kg PO BID. Here is the method: Female nude mice were inoculated subcutaneously with 5 X 10^6 HT-29 tumor cells in IX PBS (100 µL). Twelve days later, mice were randomized into groups of 8 with an average tumor volume in each group of approximately 215 mm^3. […] Tumor size and animal body weight were measured over the course of the study on the days indicated with data points in Figure 6. Tumor volume was calculated using the formula: volume = (width^2 X length)/2.

The subject of data set [4] is subcutaneous HT-29 xenografts. Put plainly: Tumor growth inhibition experiment with tolerability, CPT11 and Compound 1, simultaneous or 24 hour delay (Example 3). It is filed as in vivo. To be noted: single agent; CPT11 100 mg/kg IP single dose; Compound 1 50 mg/kg PO BID 3 consecutive days. As to the method:
Female nude mice were inoculated subcutaneously with 5 X 10^6 HT-29 tumor cells in 1X PBS (100 µL). Twelve days later, mice were randomized into groups of 6 with an average tumor volume in each group of approximately 250 mm^3. […] Tumor size and animal body weight were measured over the course of the study on the days indicated with data points in Figure 5. Tumor volume was calculated using the formula volume = (width^2 X length)/2.

The nature of data set [5]: Compound 2 exposure in HT-29 tumor bearing mice after CPT11 (Example 6). The format is in vivo, nude mice. To be noted: Compound 2 25 mg/kg PO, from 24 hours after CPT11 100 mg/kg; single dose vs 3 consecutive days BID; t-test > 0.05.
The test system of data set [6] is subcutaneous HT-29 xenografts. The format is in vivo. Conditions: single agent; gemcitabine 140 mg/kg IP Q7Dx2; Compound 2 PO BID 3 days, dose not given. As to the method:
Female nude mice were inoculated subcutaneously with 5 X 10^6 HT-29 tumor cells in IX PBS (100 µL). Fourteen days later, mice were randomized into groups of 8 with an average tumor volume in each group of approximately 260 mm^3. Sorted animals were administered gemcitabine (140 mg/kg; IP) on a Q7Dx2 cycles schedule. Compound 2 (10 or 25mg/kg: PO, BID) administration was initiated 24 hours post gemcitabine and endured for 3 days as indicated. Tumor size and animal body weight were measured over the course of the study on the days indicated with data points in Figure 9. Tumor volume was calculated using the formula: volume = (width^2 X length)/2. No mortalities occurred over the course of this study.

Data set [7] concerns subcutaneous HT-29 xenografts. The data set can be described thus: Tumor growth inhibition experiment, CPT11 and Compound 2 (Example 11). To be noted: in combination with CPT-11; Compound 2 10 or 25 mg/kg PO BID. The format is in vivo, nude mice. As to the method:
Female nude mice were inoculated subcutaneously with 5 X 10^6 HT-29 tumor cells in 1X PBS (100 µL). Fourteen days later, mice were randomized into groups of 8 with an average tumor volume in each group of approximately 260 mm^3. […] Tumor size and animal body weight were measured over the course of the study on the days indicated with data points in Figure 12. Tumor volume was calculated using the formula: volume= (width^2 x length)/2.

Data set [8] deals with subcutaneous HT-29 xenografts. It is filed as in vivo. To be noted: for Growth Delay: gemcitabine 120 mg/kg IP Q7Dx3. As to the method:
Female nude mice were inoculated subcutaneously with 5 X 10^6 HT-29 tumor cells in IX PBS (100 µL). Fourteen days later, mice were randomized into groups of 7 with an average tumor volume in each group of approximately 200 mm^3. Sorted animals were administered gemcitabine (120 mg/kg; IP) on a Q7Dx3 cycles schedule. Compound 5 (5, 10 or 25mg/kg; PO. BID) administration was initiated 24 hours post gemcitabine and endured for 3 days as indicated. Tumor size and animal body weight were measured over the course of the study on the days indicated with data points in Figure 10. Tumor volume was calculated using the formula: volume = (width^2 X length)/2. No mortalities occurred over the course of this study.

The subject of a further data set is phospho-cdc2. Put plainly: Inhibition of CPT11 induced phosphorylation of cdc2 in HT-29 tumors, immunoblot (Example 7). Conditions: extended dosing: 5, 10 or 25 mg/kg PO BID 3 consecutive days from 24 hours after CPT11 100 mg/kg IP; tumors harvested 96 hours post CPT11. It is filed as in vivo, nude mice. As to the method:
Female nude mice were inoculated subcutaneously with 5 X 10^6 HT-29 tumor cells in IX PBS (100 µL). Twenty nine days later, mice were randomized into groups of 3 with an average tumor volume in each group of approximately 500 mm^3. […] Compound 5 was given as a single dose at 25 mg/kg, or alternatively 5, 10, or 25 mg/kg doses were given for 3 consecutive days on BID schedules. […] Phosphorylation of cdc2 was assessed by immunoblot and normalized to total ERK expression. Results are expressed as POC.
On the technique in general: Immunoblotting shows a protein as a band on a membrane.

Data set [9] deals with MiaPaCa2 pancreatic carcinoma xenografts. It is filed as in vivo. Conditions: for % Tumor Growth Inhibition / Growth Delay: single agent, gemcitabine 120 mg/kg IP Q7Dx3, Compound 5 given as 10 mg/kg in table. As to the method: female nude mice were inoculated subcutaneously with 7 X 10^6 MiaPaCa2 tumor cells in a 1:1 1X PBS and matrigel suspension (100 µL). Fifteen days later, mice were randomized into groups of 7 with an average tumor volume in each group of approximately 315 mm^3. Sorted animals were administered gemcitabine (120 mg/kg; IP) on a Q7Dx3 cycles schedule. […] Tumor size and animals body weight were measured over the course of the study on the days indicated with data points in Figure 11. Tumor volume was calculated using the formula: volume = (width^2 X length)/2. No mortalities occurred over the course of this study.

Setting [10] is: single agent, Compound 5 10 mg/kg PO BID 3 days.

Like-named read-outs stand apart in the source and are kept apart here.

As to `CCc1c2c(nc3ccc(OC(=O)N4CCC(N5CCCCC5)CC4)cc13)-c1cc3c(c(=O)n1C2)COC(=O)[C@]3(O)CC` [CPT11, irinotecan, reference compound], the “Growth Delay” value in [1] was determined as 16.6 days; in data set [3] it was 16 days. The “Maximum % Body Weight Loss” value in [1] was 6.3, Day 18%; in data set [2] it was 3.4. Day 14%; in data set [4], 3.9, Day 13%. The “% Mortality” value in data set [2] and in data set [4] was 0% in each case.
As to `N[C@@H]1CCCN(c2c(Br)cnc3[nH]cc(NC(=O)c4cccnc4)c23)C1` [Compound 1, (R)-N-(4-(3-aminopiperidin-1-yl)-5-bromo-1H-pyrrolo[2,3-b]pyridin-3-yl)nicotinamide], the “Maximum % Body Weight Loss” value in [4] was 3.9, Day 13%.
Take `CC(C)C(=O)Nc1c[nH]c2ncc(Br)c(N3CCC[C@@H](N)C3)c12` [Compound 2, (R)-N-(4-(3-aminopiperidin-1-yl)-5-bromo-1H-pyrrolo[2,3-b]pyridin-3-yl)isobutyramide]: the “exposure following a single dose or administration for 3 days” value in data set [5] is on record as “not statistically_different”. Further, in data set [2], the “% Mortality” value stood at 0% and the “Maximum % Body Weight Loss” value is 0.3, Day 17%. In data set [3], the “Growth Delay” value turned out to be 1.8 days and the “Maximum % Body Weight Loss” value was 7.2, Dav 3%. Moreover, the “Growth Delay” value in data set [6] came out at 4.78 days. In addition, in data set [7], the “inhibition of tumor growth” value is reported as “dose related inhibition of tumor growth”.
As for `N[C@@H]1CCCN(c2c(Br)cnc3[nH]cc(NC(=O)C4CC4)c23)C1` [Compound 5, (R)-N-(4-(3-aminopiperidin-1-yl)-5-bromo-1H-pyrrolo[2,3-b]pyridin-3-yl)cyclopropanecarboxamide], the “inhibition of tumor growth” value in data set [1] (in combination with CPT-11, Compound 5 5, 10 or 25 mg/kg PO BID) is listed as “dose related inhibition of tumor growth”; in data set [8] (in combination with gemcitabine, Compound 5 5, 10 or 25 mg/kg PO BID), “dose related inhibition of tumor growth”. Besides, the “Growth Delay” value in data set [1] is 7.7 days; in data set [8] (setting [10]), 5.7 days; in data set [9] it was 6.1 days. The “Maximum % Body Weight Loss” value in data set [1] is 2.5, Dav 18%. For the same compound, the “% Regression” value in data set [8] (setting [10]) is recorded as 31.6%. Also, in the data set with phospho-cdc2, the “inhibition of CPT11 induced phospho-cdc2” value is listed as “dose-related inhibition”. In addition, in [9] (in combination with gemcitabine, MiaPaCa2 pancreatic carcinoma xenografts), the tumor growth result is “inhibits tumor growth”. Further, in data set [9], the “% Tumor Growth Inhibition” value is reported as 25,5%.
Consider `Nc1ccn([C@@H]2O[C@H](CO)[C@@H](O)C2(F)F)c(=O)n1` [Gemcitabine, gemcitabine, reference compound], for which the “Growth Delay” value in data set [8] (setting [10]) amounted to 11.5 days; in data set [6], 4.39 days; in [9], 2.2 days. The “% Tumor Growth Inhibition” value in data set [9] amounted to 6.6%.
